A short description of data set [1]: Cytotoxicity assay (MTT) on Vero E6 cells. The following applies: African green monkey; VERO E6 cells, MTT, 3 days; read-out: CC50 ± SD (half-maximal cytotoxic concentration). Type of data set: cell-based. On the procedure:
Compounds characterized by the best anti-enzymatic activity were tested against ZIKV in cellular assays. VERO E6 cells were infected with ZIKV at a multiplicity of infection (M.O.I.) of 0.1, and their activities were evaluated by a plaque reduction assay three days post-infection. Ribavirin was used as a reference compound. As reported in Table 2, compound 1, identified in the first screening, was unable to inhibit viral replication up to a 100 μM concentration. […] The cytotoxicity of the series was determined on the same cell line. […] Their selectivity indexes were calculated as the ratio between CC50 and IC50 values; the results highlight their promising safety profile.
Monolayers of 2.5 × 10^4 Vero E6 cells per well were grown in flat-bottom 96-well culture plates and allowed to adhere overnight. Then, when the cell layers were confluent, the medium was removed, the wells were washed twice with PBS, treated with 100 µL of DMEM with 10 µL DMSO alone (cell positive control) or with various concentrations of anti-NS5 inhibitory compounds under study (compound final concentrations of 100, 10, 1, 0.1, and 0.01 μM), and incubated for 3 days at 37 °C in a CO2. After treatment, an MTT (3-(4,5-dimethylthiazol-2-yl)-2,5-diphenyltetrazolium bromide) kit (Roche, Milan, Italy) was used according to the supplier’s instructions, and the absorbance of each well was determined using a microplate spectrophotometer at a wavelength of 570 nm. Cytotoxicity was calculated by dividing the average optical density of treated samples by the average of DMSO-treated samples (cell positive control).

Data set [2] is described as follows: Stability test in human plasma. In kind it is in vitro ADME. The following applies: pH 7.4, 37 °C, up to 24 h, read-out: Plasma Stab. (T1/2, h ± SD) (converted). On the procedure: Finally, compounds were incubated in human plasma at 37 °C for 24 h. […] Taken together, stability studies confirmed that the series is suitable for further development.
For the ADME property determination, an Agilent 1260 Infinity HPLC-DAD interfaced with an Agilent MSD 6130 (Agilent Technologies, Palo Alto, CA, USA) was used. Chromatographic conditions were optimized using a Phenomenex Kinetex C18-100 Å column (150 × 4.6 mm) with 5 µm particle size and gradient elution with a binary solution (eluent A: H2O; eluent B: ACN; both eluents were acidified with formic acid 0.1% v/v) at room temperature. The LC analyses started with 5% of B (from t = 0 to t = 1 min), then B was increased to 95% (from t = 1 to t = 10 min) and then kept at 95% (from t = 10 to t = 19 min) and finally returned to initial conditions in 1.0 min. The flow rate was 0.6 mL/min and the injection volume was 10 µL.
A stock solution of the target compound in DMSO (2 mM) was incubated in a test tube with pooled human plasma (55.7 mg protein/mL) and HEPES buffer (25 mM, 140 mM NaCl pH 7.4) up to a final volume of 1.0 mL. The mixture was incubated at 37 °C, and at set time points (0.0, 0.5, 1, 4, 8, 24 h), samples of 50 µL were taken, mixed with 400 µL of ACN to stop the reaction of plasmatic esterases, and centrifuged at 5000 rpm for 15 min. The supernatant was removed and analyzed using the LC-UV/MS method previously described. The half-life (t½) was calculated according to the following equation: t½=ln 2/k where k represents the substrate elimination constant. For each compound, the determination was performed in three independent experiments.

In another data set the test system is ZIKV. Description: ZIKV inhibitory viral plaque reduction assay in Vero E6 cells. In kind it is cell-based, Zika virus. In general terms: In a plaque reduction assay, fewer plaques than in the control indicate reduced infectivity or spread.
In another data set the target is T1, ZIKV NS5 MTase (Zika virus, UniProt A0A024B7W1).
T1 construct: KJ776791.2, aa 4–278; His6 (N); made in house; host or cells: Escherichia coli T7 Express Iq
T1 sequence (A0A024B7W1 2524-2798): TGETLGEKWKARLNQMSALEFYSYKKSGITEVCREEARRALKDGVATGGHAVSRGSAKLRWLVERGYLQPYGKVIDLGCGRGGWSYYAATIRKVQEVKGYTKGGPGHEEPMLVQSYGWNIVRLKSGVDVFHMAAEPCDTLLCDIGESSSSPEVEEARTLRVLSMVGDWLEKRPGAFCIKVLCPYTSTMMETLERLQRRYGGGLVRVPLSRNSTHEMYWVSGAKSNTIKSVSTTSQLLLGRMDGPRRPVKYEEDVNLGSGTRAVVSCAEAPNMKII
Description: ZIKV NS5 MTase radioactive filter-binding assay (2′-O-MTase activity). Type of data set: biochemical. The following applies: at least two experiments, read-out: IC50 (half-maximal inhibitory enzymatic concentration). As to the method: Selected compounds were evaluated in enzymatic inhibition assays against both ZIKV and DENV 2′-O-MTase activity (For details, see Figure S3 in Supplementary Materials). The screening of compounds at a concentration of 50 µM highlighted a higher inhibitory activity against ZIKV MTase. We thus focused our efforts on ZIKV and determined the IC50 values against ZIKV MTase.
Expression and purification of ZIKV NS5 MTase: The coding sequence of the ZIKV NS5 MTase domain (strain H/PF/2013, GenBank accession no. KJ776791.2, aa 4–278) was synthesized by Genscript and cloned into a pQE30 vector (Qiagen, Hilden, Germany) with an N-terminal His6 tag. The protein was expressed and purified following the procedures described in Coutard et al..
Briefly, after expression in Escherichia coli T7 Express Iq (New England BioLabs) in Terrific Broth at 17 °C overnight, bacterial pellets were resuspended in lysis buffer (50 mM Tris-HCl [pH 8], 300 mM NaCl, 5% glycerol, 0.1% Triton, 10 μg/mL DNase I, 2 tablets of EDTA-free antiprotease cocktail [Roche] and 0.25 mg/mL lysozyme). Following cell lysis and clarification, the protein was purified by affinity on immobilized metal affinity chromatography (IMAC, His prep column [GE Healthcare]), followed by size exclusion chromatography (Superdex S75 HR 16/20 column [GE Healthcare]). The NS5-MTase was concentrated and stored at −20 °C after adding glycerol to a final concentration of 40%.
Filter-binding assay: The transfer of tritiated methyl from ^[3H]SAM onto RNA substrate was monitored by a filter-binding assay (FBA), performed according to the method described previously. FBA was carried out in a reaction mixture [40 mM Tris-HCl (pH 8.0), 1 mM DTT, 2 μM SAM, and 0.1 μM 3H-SAM (Perkin Elmer, Shelton, CT, USA)] in the presence of 0.7 μM synthetic ^7mGpppAC4 and ZIKV NS5 MTase (500 nM). The enzyme was first mixed with an increasing concentration of inhibitors, previously suspended in dimethyl sulfoxide (DMSO), before the addition of RNA substrate and SAM, and then incubated at 30 °C. The final DMSO concentration in reactions was 5%. Reaction mixtures were stopped after 30 min incubation by their 10-fold dilution in ice-cold water. Samples were transferred to diethylaminoethyl (DEAE) filtermat (Perkin Elmer, Shelton, CT, USA) using a Filtermat Harvester (Packard Instruments, Meriden, CT, USA). The RNA-retaining mats were washed twice with 10 mM ammonium formate pH 8.0, twice with water, and once with ethanol before drying. They were soaked with scintillation fluid (Perkin Elmer, Shelton, CT, USA), and 3H-methyl transfer to the RNA substrates was determined using a Wallac MicroBeta TriLux Liquid Scintillation Counter (Perkin Elmer, Shelton, CT, USA). For IC50 measurements, values were normalized and fitted with Prism (GraphPad software version 10.1.1) using the following equation: Y = 100/(1 + ((X/IC50) ^ Hillslope)).

Bounds are passed on as bounds.

The values that follow come from article PMC10888717, “Identification of Novel Non-Nucleoside Inhibitors of Zika Virus NS5 Protein Targeting MTase Activity” (International Journal of Molecular Sciences, 2024).

Take `CN1C(=O)c2ccc(NC(=O)c3cc4cccc(Cl)c4s3)cc2C1=O` [Compound 17]: the CC50 at 3 days in data set [1] is more than 100 µM. Also, in data set [2], the half-life is more than 24 h. The “SI (Selectivity Index, ratio between CC50 and IC50)” value in the data set on ZIKV (VERO E6 cells) is recorded as more than 200. Besides, the IC50 in the data set with ZIKV (Zika virus, Vero C1008, read-out: IC50 ± SD (half-maximal inhibitory concentration, ZIKV plaque reduction)) was determined as 0.5 ± 0.1 µM; on ZIKV NS5 MTase, 11.4 µM.
